Measurements from US9402837B2, “Method for the treatment of neurological disorders by enhancing the activity of β-glucocerebrosidase” (Amicus Therapeutics, Inc., priority 2006, dated 2016).
Where a name gives a salt, the structure may show the parent alone.

Legend:
α-synuclein [1] = experiment: α-synuclein immunohistochemistry in transgenic mice over-expressing α-synuclein; format: in vivo
Method: 48 transgenic animals (male and female) were allocated to 6 groups (n=8) at an age of 5 to 6 weeks concerning baseline and 3 to 4 weeks, respectively concerning all other treatment groups at treatment start. One group of transgenic animals served as baseline group (5 weeks old) and was sacrificed untreated on day 0. One group of transgenic animals was treated with vehicle.
Mice (ages 3-4 weeks) were treated once daily (orally) at either 2 mg/kg; 20 mg/kg; or 200 mg/kg of IFG tartrate for 3 months. One group also was treated once every other day at 20 mg/kg.
Animals of the baseline group were sacrificed at an age of 5 weeks. All other animals were sacrificed at the end of the 3 months treatment period and blood for preparation of serum and macrophages as well as lung, brain and CSF were extracted. Therefore, all mice were sedated by standard inhalation anesthesia (Isofluran, Baxter). Cerebrospinal fluid was obtained by blunt dissection and exposure of the foramen magnum. Upon exposure, a Pasteur pipette was inserted to the approximate depth of 0.3-1 mm into the foramen magnum. CSF was collected by suctioning and capillary action until flow fully ceases. CSF was immediately frozen and kept at −80° C.
After CSF sampling, each mouse was placed in dorsal recumbence, the thorax was opened and a 26-gauge needle attached to a 1 cc syringe was inserted into the right cardiac ventricular chamber. Light suction was applied to the needle. Blood was separated into 2 parts. […] Mice were transcardially perfused with physiological (0.9%) saline and lung tissue as well as brain was rapidly removed. The lungs were rinsed in cold PBS (outside only) to remove blood and then they were quick frozen.
The brains were removed and hemisected. The right hemispheres of all mice were immersion fixed in freshly produced 4% paraformaldehyde/PBS (pH 7.4) for one hour at room temperature. Thereafter brains were transferred to a 15% sucrose PBS solution for 24 hours to ensure cryoprotection. On the next day brains were frozen in liquid isopentane and stored at −80° C. until used for histological investigations. To determine the effects of the IFG-tartrate treatment from 8 animals per group 10 μm-thick cryosections were cut for determination of alpha-synuclein pathology. All organs and tissues mentioned were sampled and from specific brain regions i.e. hippocampus, midbrain, frontal cortex and striatum of one hemibrain were extracted and frozen. The other brain half was processed for histological evaluation.
For evaluation of the number of α-synuclein positive cells and Lewy body like inclusions an immunohistochemical staining was carried out using the monoclonal human alpha-synuclein specific antibody (Alexis@; Cat#804-258-L001), dilution 1:5, detected with secondary Cy2 antibody (Jackson Immunoresearch®). The number of alpha-synuclein positive cells in five different layers, one slice per layer, was counted for evaluation in the whole hippocampus and cortex seperately.
Briefly, samples were washed for 10 min with PBS at room temperature, followed by fixing for 30 min at room temperature with 4% paraformaldehyde, followed by washing 2 times for 5 min each with PBS at room temperature. For Proteinase K-treated sections, sections were incubated in PBS containing 10 μg/ml proteinase-K for 10 minutes at room temperature. Next, samples were incubated for 15 min at room temperature with blocking solution to block endogenous peroxidase, followed by two more 5 min washes with PBS. Samples were then incubated for 60 min at room temperature with a blocking reagent to block non-specific binding, followed by two more 5 min washes with PBS. Samples were then incubated with M.O.M. diluent for 5 min at room temperature, followed by incubation with the primary antibody (dilution 1:5 in M.O.M. diluent) for 60 min with at room temperature. […]

[2] = Phase I safety and tolerability in healthy volunteers; format: in vivo, human
Method: (§1) In a first-in-human single ascending dose study (1a), doses of 8, 25, 75, 150 (two cohorts), and 300 mg were administered (6 active, 2 placebo in each cohort). In a multiple ascending dose study (1b), doses of 25, 75, and 225 mg were administered daily for seven days (6 active, 2 placebo in each cohort). In both studies, of the eight subjects in each group; six were randomized to receive IFG tartrate, and two subjects received placebo. Subjects were confined from the evening of day-1 until 24 hrs after completion of dosing. In the phase 1a study subjects returned at 48 hrs (PK sampling) and 7 days (safety follow-up) following dosing. In the phase 1b study subjects returned at 48 h (PD sampling), 7 days (PD sampling and safety follow-up), and 14 days (PD sampling) following the last dose
Safety was determined by evaluating vital signs, laboratory parameters (serum chemistry, hematology, and urinalysis), physical examination and by recording adverse events during the Treatment Period.
Safety data including laboratory evaluations, physical exams, adverse events, ECG monitoring and vital signs assessments were summarized by treatment group and point of time of collection. Descriptive statistics (arithmetic mean, standard deviation, median, minimum and maximum) were calculated for quantitative safety data as well as for the difference to baseline. Frequency counts were compiled for classification of qualitative safety data.

[3] = Phase I pharmacokinetics of oral IFG tartrate in healthy volunteers; format: in vivo, human; conditions: for accumulation after repeated doses: multiple-dose study, 7 days oral, Day 1 vs Day 7
Method: as §1
Subjects were healthy male and female volunteers between 19 and 55 years of age (inclusive) consisting of members of the community at large.
Blood samples (10 mL each) were collected in blood collection tubes containing EDTA before dosing was determined at regular intervals for the phas 1a during 48 hr following dosing. In the phase 1b study a full IFG tartrate pharmacokinetic profile was determined for 24 hr following the first dose, Cmin values were obtained pre-dose on day 6 and 7, and another full profile was determined for 24 hr following the final, day 7, dose.

α-synuclein [4] = experiment: α-synuclein accumulation in brains of V394L knock-in mice treated with CBE; format: in vivo; conditions: CBE daily i.p. for 30 days
Method: Mice homozygous for the point mutations D409H or V394L and expressing a low level of saposin C in a prosaposin knock-out background, were analyzed for accumulation of α-synuclein in the brain. These mice have been reported to accumulate glucosylceramide in the brain. Mice homozygous for the point mutations V394L only, were analyzed for α-synuclein accumulation with and without CBE treatment. […] Mice were administered CBE daily by interperitonally injection for 30 consequitive days ([…] calculated from the total weight of the mouse) and brains were analyzed by immunohistochemistry for accumulation of α-synuclein.
Brain tissue was frozen and fixed for immunohistochemistry with 4% paraformaldehyde and serial sections were co-labelled with anti-human α-synuclein (ab1903; Abcam, Cambridge, Mass.) and rabbit anti-ubiquitin (ab7780; Abcam, Cambridge, Mass.).

GCase [5] = target: GCase (Mus musculus (Mouse), UniProt P17439); experiment: In vivo GCase activity in normal mice upon treatment with IFG
Method: This Example provides information on the effects of isofagomine, a GCase-specific chaperone on mice. […] Ten male C57BL6 (25 g) mice per group were used. The drug was be given in the drinking water, therefore water consumption was monitored daily.
In the control group (0 mg/kg/day), the mice were dosed daily in the drinking water (no drug) and divided into two groups. Ten animals were euthanized after 4 weeks of treatment, blood was collected from the descending aorta or vena cava, and tissues were harvested and then necropsied.
In the test group, 10 mice were dosed daily in the drinking water with an administration aim of 200 mg/kg/day.
The blood samples were drawn into lithium heparin and spun for plasma. After bleeding, the spleen, lung, brain and liver were removed and placed into vials. The vials were put into dry ice for rapid freezing. The tissues and plasma were then analyzed for tissue levels of GCase.
Small portions of tissue were removed and added to 500 μl lysis buffer (20 mM sodium citrate and 40 mM disodium hydrogen phosphate, pH 4.0, including 0.1% Triton X-100). Tissues were then homogenized using a microhomogenizer for a brief time, followed by centrifugation at 10,000 rpm for 10 minutes at 4° C. Supernatants were transferred to a new tube and used for the enzyme assay.
The enhancement ratio is equal to the activity with the compound over the activity without the compound.

GCase [6] = target: GCase (Homo sapiens (Human), UniProt P04062); experiment: GCase enzymatic activity in healthy volunteers receiving IFG; format: in vivo
Method: as §1
GCase activity was determined pre-dose on days 1, 3, 5, 7, 9, 14, and 21. Blood samples were cooled in an ice bath and centrifuged under refrigeration as soon as possible. Plasma samples were divided into two aliquots and stored at […] pending assay. At the end of the study, all samples were transferred to MDS Pharma Services Analytical Laboratories (Lincoln) for analysis.

Chain of GCase (Mus musculus (Mouse), UniProt P17439) (P17439 20-515): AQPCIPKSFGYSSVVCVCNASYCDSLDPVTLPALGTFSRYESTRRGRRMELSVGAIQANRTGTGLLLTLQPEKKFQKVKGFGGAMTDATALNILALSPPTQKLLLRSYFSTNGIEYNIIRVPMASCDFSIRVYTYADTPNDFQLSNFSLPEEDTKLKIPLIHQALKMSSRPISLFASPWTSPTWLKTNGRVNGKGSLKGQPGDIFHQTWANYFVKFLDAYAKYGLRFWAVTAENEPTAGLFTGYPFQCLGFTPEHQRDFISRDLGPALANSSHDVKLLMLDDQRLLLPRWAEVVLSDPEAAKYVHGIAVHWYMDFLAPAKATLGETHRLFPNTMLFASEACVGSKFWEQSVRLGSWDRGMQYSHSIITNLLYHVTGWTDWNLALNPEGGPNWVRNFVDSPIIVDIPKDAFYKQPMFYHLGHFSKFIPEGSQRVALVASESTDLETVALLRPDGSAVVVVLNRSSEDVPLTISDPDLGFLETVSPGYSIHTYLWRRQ
Chain of GCase (Homo sapiens (Human), UniProt P04062) (P04062 40-536): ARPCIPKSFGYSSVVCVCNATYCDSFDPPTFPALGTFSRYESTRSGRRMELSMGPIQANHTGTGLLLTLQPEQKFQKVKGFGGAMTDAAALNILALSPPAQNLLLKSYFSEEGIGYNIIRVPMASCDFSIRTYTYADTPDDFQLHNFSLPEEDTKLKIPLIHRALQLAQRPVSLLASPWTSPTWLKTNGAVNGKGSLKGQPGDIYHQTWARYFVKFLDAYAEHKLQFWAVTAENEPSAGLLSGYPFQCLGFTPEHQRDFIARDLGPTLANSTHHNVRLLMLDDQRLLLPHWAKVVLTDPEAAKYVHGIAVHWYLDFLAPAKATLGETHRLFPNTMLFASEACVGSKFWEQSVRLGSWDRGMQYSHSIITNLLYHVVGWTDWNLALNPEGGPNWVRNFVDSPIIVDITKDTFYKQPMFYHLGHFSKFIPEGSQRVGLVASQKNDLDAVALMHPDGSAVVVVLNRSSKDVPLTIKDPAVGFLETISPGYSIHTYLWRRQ

systemic exposure via the oral route ([3]; healthy volunteers)	accumulation after repeated doses [3]	wild-type GCase activity dose-response (GCase [5]; mice treated with 0, 1, 10, or 100 mg/kg/day)	GCase levels in tissues (GCase [5]; normal C57BL6 mice, 200 mg/kg/day in drinking water, liver, spleen, brain and lung)	sex differences in pharmacokinetic parameters ([3]; repeated doses)	increase in GCase levels above baseline (GCase [6]; healthy volunteers, treatment period, dose-related, maximum reached)	GCase levels after removal of the drug (GCase [6]; two weeks after the last dose)	Compound	number of α-synuclein immunoreactive cells in the hippocampus versus vehicle (α-synuclein [1]; 2 mg/kg daily, 3 months)	age-accompanied increase of α-synuclein positive cell load versus baseline (α-synuclein [1]; 2 mg/kg, mean of cortex and hippocampus)	accumulation of Proteinase K-resistant α-synuclein aggregates (α-synuclein [1]; 20 mg/kg, 3 months, single responding animal)	α-synuclein pathology versus controls (α-synuclein [1]; 20 mg/kg, daily or every other day, 3 months)	qualitative α-synuclein immunostaining versus control animals (α-synuclein [1]; 2 and 20 mg/kg b.w. daily, 3 months, cortex and hippocampus)	α-synuclein pathology in the cortex (α-synuclein [1]; 3 months treatment)	serious adverse events ([2]; healthy volunteers, both Phase I studies)	tolerability ([2]; healthy volunteers, single (8-300 mg) and multiple (25-225 mg, 7 days) oral doses)	plasma AUC and Cmax versus administered dose ([3]; single-dose study)	α-synuclein in the brain (α-synuclein [4])	adverse events most frequently reported ([2]; healthy adult subjects)
good systemic exposure	no unexpected accumulation	–	–	–	–	–	OC[C@H]1CNC[C@@H](O)[C@@H]1O [Isofagomine tartrate]	reduced the number of immunoreactive cells in the hippocampus significantly	prevented mice from the age-accompanied increase of pathology	prevents the accumulation of these α-synuclein aggregates	not effective versus controls	strongly decreased background and decreased α-synuclein positive cell numbers in some	did not reach significance level in the cortex	No serious adverse events occurred	generally well tolerated	linearly correlated with administered dose	–	–
–	–	–	–	–	–	–	O[C@H]1[C@H](O)[C@@H](O)[C@@H]2O[C@@H]2[C@@H]1O [CBE, conduritol-β-epoxide]	–	–	–	–	–	–	–	–	–	resulted in accumulation of α-synuclein in the brain	–
–	Minimal accumulation	linear dose-response increase	increased	no observable sex differences	approximately 3.5 fold	return to near baseline levels by day 21	OC[C@H]1CNC[C@@H](O)[C@@H]1O [Isofagomine, (3R,4R,5R)-5-(hydroxymethyl)-3,4-piperidinediol]	–	–	–	–	–	–	–	–	–	–	contact dermatitis, headache, nausea, increased serum bilirubin, dizziness, scab, ocular hyperaemia, and puncture site pain
